Source: BigSolDB 2.1

N=C(N)NC(N)=S
solubility (mole fraction)
Details | 283.15 K | 288.15 K | 293.15 K | 298.15 K | 303.15 K | 308.15 K | 313.15 K | 318.15 K | 323.15 K
in 1,4-dioxane | – | 0.00901 | 0.0107 | 0.0127 | 0.0151 | 0.0178 | 0.0208 | 0.0241 | 0.028
in NMP | 0.0139 | 0.0166 | 0.0195 | 0.0236 | 0.0281 | 0.0329 | 0.0389 | 0.0455 | 0.0532
in acetone | 0.0103 | 0.0123 | 0.0145 | 0.0175 | 0.0203 | 0.0241 | 0.028 | 0.0324 | 0.0371
in acetonitrile | 0.00365 | 0.00428 | 0.00504 | 0.00591 | 0.00688 | 0.008 | 0.00927 | 0.0105 | 0.0121
in cyclohexane | 3.6e-05 | 4.3e-05 | 5e-05 | 6e-05 | 7e-05 | 8.4e-05 | 9.9e-05 | 0.000118 | 0.00014
in ethanol | 0.0045 | 0.00521 | 0.00605 | 0.00706 | 0.00817 | 0.00933 | 0.0106 | 0.0122 | 0.014
in ethyl acetate | 0.00196 | 0.00245 | 0.00314 | 0.00391 | 0.00471 | 0.00569 | 0.00679 | 0.00797 | 0.0094
in isopropanol | 0.00124 | 0.00167 | 0.00223 | 0.00286 | 0.00363 | 0.00456 | 0.00559 | 0.0069 | 0.00854
in methanol | 0.00558 | 0.00635 | 0.00744 | 0.0089 | 0.0105 | 0.0123 | 0.0143 | 0.0165 | 0.0192
in n-butanol | 0.000477 | 0.000749 | 0.00111 | 0.00162 | 0.00226 | 0.00314 | 0.00432 | 0.00575 | 0.0076
in n-propanol | 0.00271 | 0.00326 | 0.00393 | 0.00468 | 0.00564 | 0.00676 | 0.00782 | 0.00901 | 0.0104
in toluene | 0.000126 | 0.000137 | 0.000149 | 0.00016 | 0.000174 | 0.000189 | 0.000206 | 0.000223 | 0.000243
